Laboratory results from the NIST ThermoML archive (doi:10.1016/j.jct.2016.08.006).

Key:
[1] = molar heat capacity at constant pressure; settings: 101.3 kPa, Liquid, Small sample (50 mg) DSC
[2] = molar heat capacity at constant pressure; xn = mol fraction of the nth substance listed; settings: 101.3 kPa, Liquid, Small sample (50 mg) DSC, x2 = 0

O [water]
[1]
Settings	molar heat capacity at constant pressure [J/K/mol]
303.2 K	75.26
308.2 K	75.27
313.2 K	75.29
318.2 K	75.31
323.2 K	75.29
328.2 K	75.32
333.2 K	75.41
338.2 K	75.44
343.2 K	75.48
348.2 K	75.55
353.2 K	75.78

O [water] + NCCN1CCNCC1
[2]
Settings	molar heat capacity at constant pressure [J/K/mol]
303.2 K	75.26
308.2 K	75.27
313.2 K	75.29
318.2 K	75.31
323.2 K	75.29
328.2 K	75.32
333.2 K	75.41
338.2 K	75.44
343.2 K	75.48
348.2 K	75.55
353.2 K	75.78

CNCCN(C)C [N,N,N'-trimethylethylenediamine]
[1]
Settings	molar heat capacity at constant pressure [J/K/mol]
303.2 K	258.3
308.2 K	260
313.2 K	262.7
318.2 K	265.3
323.2 K	269.2
328.2 K	272.7
333.2 K	276
338.2 K	278.9
343.2 K	281.3
348.2 K	283.4
353.2 K	286.6

Cc1ccccc1 [toluene]
[1]
Settings	molar heat capacity at constant pressure [J/K/mol]
303.2 K	159.1
308.2 K	160.4
313.2 K	161.6
318.2 K	163
323.2 K	164.1
328.2 K	165.5
333.2 K	167
338.2 K	168.6
343.2 K	170.4
348.2 K	172.8
353.2 K	175.1

NCCN1CCNCC1 [N-(β-aminoethyl)piperazine)]
[1]
Settings	molar heat capacity at constant pressure [J/K/mol]
303.2 K	289.7
308.2 K	290.8
313.2 K	293.1
318.2 K	294.7
323.2 K	296.9
328.2 K	298.5
333.2 K	300.7
338.2 K	302.2
343.2 K	303.3
348.2 K	303.6
353.2 K	304.6

O [water] + CNCCN(C)C
[2]
Settings	molar heat capacity at constant pressure [J/K/mol]
303.2 K	75.26
308.2 K	75.27
313.2 K	75.29
318.2 K	75.31
323.2 K	75.29
328.2 K	75.32
333.2 K	75.41
338.2 K	75.44
343.2 K	75.48
348.2 K	75.55
353.2 K	75.78
